According to article PMC4800267 (Assay and Drug Development Technologies, 2016):
Several values for one entry are separate records, joined by “and”; a condition that tells them apart may be missing. Identical values can stand only once. Entries after “also recorded” stand apart in the source; their conditions may differ. Like-named read-outs stand apart in the source and are kept apart here.

How the values were obtained:
rNav1.4 = rNav1.4 in Xenopus oocytes; cited from earlier work
mNav1.6 = mNav1.6 in Xenopus oocytes; cited from earlier work
hNav1.3 = hNav1.3 (Homo sapiens, UniProt Q9NY46); assay type: cell-based; details: inactivated-state Peak 2
hNav1.7 = hNav1.7 (Homo sapiens, UniProt Q15858); details: hNav1.7 in Xenopus oocytes; cited from earlier work
[1] = system: endogenous TTX-S currents in ND7-23 cells; assay: cells; assay type: cell-based, rodent; details: for effect on resting- or inactivated-state TTX-S currents: 300 nM
hNav1.5 = hNav1.5 on QPatch; cited from earlier work
rat Nav1.7 = details: cited from earlier work
Nav1.3 = details: read-out: IC50 Nav1.3; cited from earlier work
Nav1.1 = details: read-out: IC50 Nav1.1; cited from earlier work

hNav1.7, sequence (Q15858 whole entry): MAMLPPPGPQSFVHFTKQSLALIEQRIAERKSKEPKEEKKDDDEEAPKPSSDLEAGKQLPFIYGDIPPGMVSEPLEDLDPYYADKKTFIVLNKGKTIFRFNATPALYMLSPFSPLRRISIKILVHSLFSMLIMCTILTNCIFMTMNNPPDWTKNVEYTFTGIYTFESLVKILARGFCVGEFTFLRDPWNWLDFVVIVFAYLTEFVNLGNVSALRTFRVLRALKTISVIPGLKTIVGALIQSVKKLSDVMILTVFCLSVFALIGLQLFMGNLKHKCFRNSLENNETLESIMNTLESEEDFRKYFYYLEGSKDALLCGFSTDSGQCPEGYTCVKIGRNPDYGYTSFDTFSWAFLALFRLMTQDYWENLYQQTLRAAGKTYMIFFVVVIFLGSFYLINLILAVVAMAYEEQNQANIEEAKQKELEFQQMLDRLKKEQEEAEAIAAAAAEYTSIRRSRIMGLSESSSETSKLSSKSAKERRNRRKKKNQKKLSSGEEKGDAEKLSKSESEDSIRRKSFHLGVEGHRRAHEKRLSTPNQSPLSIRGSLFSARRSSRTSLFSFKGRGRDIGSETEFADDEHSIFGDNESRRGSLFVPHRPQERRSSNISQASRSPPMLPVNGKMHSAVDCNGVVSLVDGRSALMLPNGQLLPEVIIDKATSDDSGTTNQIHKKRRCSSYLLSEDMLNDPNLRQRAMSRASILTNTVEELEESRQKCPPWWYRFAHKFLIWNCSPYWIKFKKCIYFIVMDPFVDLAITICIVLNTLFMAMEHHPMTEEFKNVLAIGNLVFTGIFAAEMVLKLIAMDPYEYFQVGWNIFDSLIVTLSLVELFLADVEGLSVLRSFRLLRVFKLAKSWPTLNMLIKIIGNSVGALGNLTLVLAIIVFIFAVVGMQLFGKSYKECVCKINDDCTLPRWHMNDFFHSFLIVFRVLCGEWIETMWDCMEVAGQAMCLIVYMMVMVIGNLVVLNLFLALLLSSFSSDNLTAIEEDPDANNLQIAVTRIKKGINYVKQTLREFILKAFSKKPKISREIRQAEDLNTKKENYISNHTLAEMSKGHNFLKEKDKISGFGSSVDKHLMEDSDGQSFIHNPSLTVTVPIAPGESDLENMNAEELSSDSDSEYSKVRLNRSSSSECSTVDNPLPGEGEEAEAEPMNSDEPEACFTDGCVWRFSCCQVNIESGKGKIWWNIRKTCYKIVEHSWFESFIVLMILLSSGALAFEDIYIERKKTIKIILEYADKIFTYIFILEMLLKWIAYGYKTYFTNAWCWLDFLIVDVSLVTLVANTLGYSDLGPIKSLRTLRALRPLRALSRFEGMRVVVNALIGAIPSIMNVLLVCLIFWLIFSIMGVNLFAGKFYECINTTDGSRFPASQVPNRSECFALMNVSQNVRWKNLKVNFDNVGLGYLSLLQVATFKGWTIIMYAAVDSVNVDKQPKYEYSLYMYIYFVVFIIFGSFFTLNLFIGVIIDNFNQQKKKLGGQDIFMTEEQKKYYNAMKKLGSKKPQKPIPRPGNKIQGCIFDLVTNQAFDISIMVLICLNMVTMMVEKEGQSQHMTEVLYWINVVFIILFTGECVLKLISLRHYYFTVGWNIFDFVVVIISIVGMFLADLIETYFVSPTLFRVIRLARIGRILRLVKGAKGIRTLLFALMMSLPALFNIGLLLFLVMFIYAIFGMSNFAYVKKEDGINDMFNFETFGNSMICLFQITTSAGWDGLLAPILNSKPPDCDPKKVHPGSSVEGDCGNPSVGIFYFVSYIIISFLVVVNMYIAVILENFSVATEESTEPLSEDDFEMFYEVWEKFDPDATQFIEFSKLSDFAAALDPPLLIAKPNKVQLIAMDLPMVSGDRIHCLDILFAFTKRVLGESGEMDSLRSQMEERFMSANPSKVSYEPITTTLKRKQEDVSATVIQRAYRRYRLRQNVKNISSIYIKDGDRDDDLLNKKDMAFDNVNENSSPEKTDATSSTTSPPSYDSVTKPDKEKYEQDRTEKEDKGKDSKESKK
hNav1.3, sequence (Q9NY46 whole entry): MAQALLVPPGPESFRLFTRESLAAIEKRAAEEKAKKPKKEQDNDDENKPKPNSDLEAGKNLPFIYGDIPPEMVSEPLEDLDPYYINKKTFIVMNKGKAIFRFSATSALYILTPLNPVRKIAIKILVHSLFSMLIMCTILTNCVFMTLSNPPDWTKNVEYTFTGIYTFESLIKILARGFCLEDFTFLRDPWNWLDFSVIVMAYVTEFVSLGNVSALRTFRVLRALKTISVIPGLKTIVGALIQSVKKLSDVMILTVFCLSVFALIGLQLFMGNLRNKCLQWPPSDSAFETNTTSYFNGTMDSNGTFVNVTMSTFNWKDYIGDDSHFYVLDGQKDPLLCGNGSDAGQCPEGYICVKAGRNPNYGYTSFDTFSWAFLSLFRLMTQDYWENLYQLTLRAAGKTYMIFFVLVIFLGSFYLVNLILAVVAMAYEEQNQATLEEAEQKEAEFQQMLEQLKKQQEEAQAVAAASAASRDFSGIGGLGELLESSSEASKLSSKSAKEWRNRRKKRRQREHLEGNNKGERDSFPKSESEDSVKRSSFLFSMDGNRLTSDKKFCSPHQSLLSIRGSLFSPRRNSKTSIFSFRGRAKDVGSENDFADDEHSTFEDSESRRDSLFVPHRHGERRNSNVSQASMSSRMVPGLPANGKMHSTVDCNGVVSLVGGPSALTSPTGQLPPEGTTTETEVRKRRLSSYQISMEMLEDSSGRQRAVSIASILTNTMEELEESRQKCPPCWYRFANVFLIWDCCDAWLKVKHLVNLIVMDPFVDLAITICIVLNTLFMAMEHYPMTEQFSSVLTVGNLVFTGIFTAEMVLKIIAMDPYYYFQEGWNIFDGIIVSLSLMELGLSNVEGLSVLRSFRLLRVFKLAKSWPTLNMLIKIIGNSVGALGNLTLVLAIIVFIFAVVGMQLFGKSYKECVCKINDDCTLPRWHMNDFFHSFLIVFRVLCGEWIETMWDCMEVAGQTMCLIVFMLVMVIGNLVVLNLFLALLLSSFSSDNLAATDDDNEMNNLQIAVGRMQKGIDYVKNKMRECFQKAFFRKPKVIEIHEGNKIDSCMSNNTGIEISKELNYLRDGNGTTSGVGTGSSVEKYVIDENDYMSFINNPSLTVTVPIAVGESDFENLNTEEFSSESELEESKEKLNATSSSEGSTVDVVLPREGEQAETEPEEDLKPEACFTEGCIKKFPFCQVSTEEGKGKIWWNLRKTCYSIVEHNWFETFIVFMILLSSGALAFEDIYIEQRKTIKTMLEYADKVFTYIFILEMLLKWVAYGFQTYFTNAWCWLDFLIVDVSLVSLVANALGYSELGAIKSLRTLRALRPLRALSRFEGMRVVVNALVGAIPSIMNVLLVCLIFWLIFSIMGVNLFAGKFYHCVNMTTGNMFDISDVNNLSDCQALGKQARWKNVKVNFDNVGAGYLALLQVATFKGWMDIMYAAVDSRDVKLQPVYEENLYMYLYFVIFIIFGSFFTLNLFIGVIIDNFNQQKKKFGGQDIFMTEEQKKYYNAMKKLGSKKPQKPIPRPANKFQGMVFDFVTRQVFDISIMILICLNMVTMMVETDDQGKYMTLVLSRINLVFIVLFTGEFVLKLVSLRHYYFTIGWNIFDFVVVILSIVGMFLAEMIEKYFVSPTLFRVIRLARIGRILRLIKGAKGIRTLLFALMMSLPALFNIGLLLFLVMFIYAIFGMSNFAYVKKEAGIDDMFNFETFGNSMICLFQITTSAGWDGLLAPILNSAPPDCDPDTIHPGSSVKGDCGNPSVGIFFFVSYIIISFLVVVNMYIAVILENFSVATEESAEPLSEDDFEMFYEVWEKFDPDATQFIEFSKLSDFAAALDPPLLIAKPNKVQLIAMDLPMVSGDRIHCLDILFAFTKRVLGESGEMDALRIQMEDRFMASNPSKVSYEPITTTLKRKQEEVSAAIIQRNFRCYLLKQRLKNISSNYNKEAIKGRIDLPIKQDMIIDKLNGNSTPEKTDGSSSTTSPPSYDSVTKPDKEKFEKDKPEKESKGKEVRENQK

Row | Compound | effects on resting or inactivated current amplitudes (rNav1.4) | effects on resting or inactivated current amplitudes (mNav1.6) | hillslope, Peak 2 (hNav1.3) | effects on resting or inactivated current amplitudes (hNav1.7) | effect on resting- or inactivated-state TTX-S currents [1] | effect on resting- or inactivated-state TTX-S currents ([1]; listed as Icagen Nav1.3 antagonist) | reduction of resting-state Peak 1 TTX-S current ([1]; 1 μM, Peak 1, mean ± SEM) | reduction of inactivated Peak 2 TTX-S current ([1]; 1 μM, Peak 2, mean ± SEM) | inhibition at 0.3 µM ([1]; ND7/23, read-out: ND7-23 TTX-S % Inhibition, Peak 1) | inhibition at 0.3 µM ([1]; ND7/23, read-out: ND7-23 TTX-S % Inhibition, Peak 2) | IC50 ([1]; ND7/23, read-out: ND7-23 TTX-S IC50, Peak 1) | IC50 ([1]; ND7/23, read-out: ND7-23 TTX-S IC50, Peak 2) | inhibition at 0.3 µM ([1]; ND7/23, read-out: inhibition of inward TTX-S currents) | inhibition of TTX-S currents, maximum over all concentrations tested ([1]; all test concentrations) | effects on resting or inactivated current amplitudes (hNav1.5) | potency against rat Nav1.7 channels (rat Nav1.7) | IC50 (Nav1.3) | IC50 (Nav1.1)
1 | O=C(Nc1ccc(S(=O)(=O)Nc2nccs2)cc1)[C@@H]1C[C@H]1c1ccccc1 [Icagen compound 68, (1R,2R)-2-phenyl-N-(4-(N-(thiazol-2-yl)sulfamoyl)phenyl)cyclopropane-1-carboxamide] | no significant effects | no significant effects | 1.2 | no significant effects | no effect; also recorded: negligible effects | no significant effect | 0.7% ± 3.0% | 8.5% ± 1.7% and 8.5% | 0.8% | -0.5% | > 10000 nM | > 10000 nM | ~0.5% | < 50% | no significant effects | – | – | –
2 | O=C(Nc1ccc(S(=O)(=O)Nc2nccs2)cc1)C(c1ccccc1)c1ccccc1 [ICA-121431] | – | – | – | – | – | – | – | – | – | – | – | – | – | – | – | low nanomolar potency | ~20 nM | ~20 nM
